Drawing on US5420135A, “Substituted quinoline derivatives” (Smith Kline & French Laboratories Limited, priority 1989, dated 1995), this text covers activity for 1 molecule.

The subject of this test is isolated rat osteoclasts. Kind of test: Bone resorption by isolated rat osteoclasts on cortical bone slices. The test is classed as cell-based. The settings on record: Osteoclast, 18 hours, Mean ± SEM, n = 12, control 100 ± 27. The protocol: Bone resorption was measured by the actions of isolated rat osteoclasts on cortical bone slices (Zaidi et al. Quarterly Journal of Experimental Physiology 1988 73:471-485). Newborn Wistar rats were killed by decapitation and their femora and tibiae removed. Osteoclasts were mechanically disaggregated by curetting the bones into medium followed by agitation with a pipette. Osteoclasts were separated from other cells by sedimentation onto bone slices (15 minutes, 37°) after which the slices were removed and gently washed. The bone slices were then incubated in the presence of test compounds (37°, 10% humidified CO2, 18 hours) and fixed with glutaraldehyde. The degree of bone resorption was then assessed by the area of erosions produced by the osteoclasts using scanning electron microscopy. Data were meaned from measurements of 6 bone slices in each of two independent experiments.
Test compounds were dissolved in ethanol which was also added to control incubations (1%) in the absence of compound.

Consider `Cc1ccccc1-n1nnc2cnc3ccccc3c21` [Example 2, 1-(2-Methylphenyl)triazolo[4,5-c]quinoline], for which the activity at 10 µM (Conc. 10 μM) was 49 ± 20%. Also, the activity at 100 µM (Conc. 100 μM) stood at 0%.
